# According to US20230322815A1, “NOVEL COMPOUNDS AND THERAPEUTIC USES THEREOF” (University of Huddersfield, priority 2020, published 2023):
# Experiments:
# [1] = Dephosphorylation of phosphorylated amino acid (31P NMR); details: 37° C.
# Protocol: (§1) FIG. 6. Phosphatase activity of [L2Zn3]^6+. ^31P NMR spectra using different substrates including PhOPO3 (spectra A to D), serine phosphate (spectra E to H), threonine phosphate (spectra I to L) and tyrosine phosphate (spectra M to P). Specific details for each ^31P NMR spectra are as follows: Spectra A, E, I and M represent substrate alone (44 hrs incubated @ 37° C.); Spectra B, F, J and N represents [L2Zn3]^6+ plus substrate (t=0 min); Spectra C, G, K and O represents [L2Zn3]^6+ plus substrate incubated @ 37° C. for 19 hours; Spectra D, H, L and […] represents [L2Zn3]^6+ plus substrate incubated @ 37° C. for 44 hours. The ^31P NMR of [L2Zn3(PO4)]^3+ gives a signal at 8.6 ppm.
# (§2) Given the importance of protein phosphorylation in inter- and intra-cellular signalling and to cell function, and its common dysregulation in cancers,^30, 31 it was next analysed whether the Zn^2+ complex could dephosphorylate the phosphorylated amino acids serine, threonine and tyrosine. […] Dephosphorylation of the amino acid threonine-OPO3^2− by the Zn^2+ complex was much slower however and after 48 hrs threonine-OPO3^2− was still the major species (FIG. 6, spectra I-L). Differences in reactivity towards different substrates can be attributed to both steric and electronic effects. […]
# [2] = as above; details: 37° C.; remark: listed apart in the source
# Protocol: as §1, §2
# ARPE19 non-cancer cells = test: Cellular ATP levels; type: cell-based, human; details: 100 μM, 20 h
# Protocol: FIG. 20. The effects of [L2Cu3]^6+, [L2Zn3]^6+ and [L2Mn3]^6+ on cellular ATP levels in the ARPE19 non-cancer and HCT116 p53^+/+ cancer cells. The effects of 20 h treatment with the indicated concentrations of [L2Cu3]^6+, [L2Zn3]^6+, or [L2Mn3]^6+ on total cellular levels of ATP compared to levels in vehicle control-treated ARPE19 or HCT116^+/+ cells. n=3 biological repeats, students t-test (p values).
# Cellular ATP studies: The effects of 20 h treatment with a range of different concentrations of [L2Cu3]^6+, [L2Zn3]^6+ and [L2Mn3]^6+ on total cellular ATP levels in HCT116 p53^+/+ and ARPE19 cells are presented in FIG. 20. Differential effects are observed depending on the metal in the complex, with [L2Mn3]^6+ having the most profound effects on both the HCT116 p53^+/+ cancer and ARPE19 non-cancer cells. 6.25 μM [L2Mn3]^6+ treatment for 20 h reduced ATP levels in the HCT116 p53^+/+ cancer cells to <50% with ATP levels declining less in the ARPE19 non-cancer cells but reaching ˜40% with 100 μM [L2Mn3]^6+ treatment. […] Effects of [L2Cu3]^6+ on ATP levels was much less, with ATP levels in the HCT116 cells reduced to <50% only at the highest concentration of 100 μM.
smiles,measurement,setting,value
[Zn+2].[Zn+2].[Zn+2].c1ccc(-c2csc(NCCN(CCNc3nc(-c4ccccn4)cs3)CCNc3nc(-c4ccccn4)cs3)n2)nc1.c1ccc(-c2csc(NCCN(CCNc3nc(-c4ccccn4)cs3)CCNc3nc(-c4ccccn4)cs3)n2)nc1 [[L2Zn3]^6+],time to completion of dephosphorylation,[1],48 h
same,rate of dephosphorylation,[1]; after 48 hrs threonine-OPO3^2− still the major species,much slower
same,time to completion of dephosphorylation,[2],48 h
same,ATP levels compared to vehicle control,ARPE19 non-cancer cells,> 70%
